Data as given in patent publication US11649259B2, “Polymorphic forms of deoxycytidine, compositions comprising the same and uses” (ZOGENIX MDS, INC., priority 2019, dated 2023).

Key:
[1] = Stability of Form B by XRPD pattern after storage (no conversion to Form A); assay type: physicochemical
Excerpt: “Stability”, as used herein, can be measured by confirming the Form B XRPD pattern of the material after a given storage time. Conversion of Form B to Form A deoxycytidine, as determined by)(RFD, indicates instability. Stability can also be measured by confirming compliance with the test attribute standards as outlined in Example 4. Test attributes include physical appearance, IR trace, HPLC trace for active and impurities, water content, residual solvent content, elemental impurities and microbial growth. One or more of these attributes can be measured after storage over a given period of time, e.g. 6 months, 12 months or more, and under various conditions, e.g. 25±2° C./60±5% relative humidity or 40±2° C./75±5% relative humidity).
XRPD data for a mixture of A and B dC isoforms (2DC (A+B mix)), the B isoform produced in the small-scale manufacturing run (2DC(7)/S-P-17001 initial) and the isolated A isoform is provided in Table 2. The stability Form B was confirmed by determining the XRPD after 12 months of storage (2DC(7)/S-P-17001 12 month).

[2] = Form B deoxycytidine 12-month stability study (Example 4); assay type: physicochemical; conditions: four lots; long-term storage 25±2° C./60±5% relative humidity and accelerated storage 40±2° C./75±5% relative humidity; measured at 3, 6, 9 and 12 months
Procedure: A study was conducted to determine the stability of Form B deoxycytidine prepared by the methods in Example 1 over a 12-month period. Four lots of material were studied: (1) and (2) were packaged in a polyethylene (PE) bag sealed with a cable tie, (3) was packed in a PE bag with silica gel sealed with a cable tie, and (4) was packaged in a PE drum sealed with a cap. […]
All attributes were measured initially (0 months) to confirm compliance with the standards above. Appearance, IR, HPLC and water content were then measured at 3, 6, 9 and 12 months to confirm compliance. Microbial content was measured again at 12 months.

Structure (SMILES): Nc1ccn([C@H]2C[C@H](O)[C@@H](CO)O2)c(=O)n1 [Form B deoxycytidine, Deoxycytidine (2′-Deoxycytidine, dC)]
- stability of Form B, XRPD pattern after storage ([1]; after 12 months of storage, lot 2DC(7)/S-P-17001, 4 kg scale): confirmed
- time for which the form is stable ([1]; stored in a sealed container at e.g. room temperature): at least 6 months
- changes in test attributes (appearance, IR, HPLC, water content, microbial content) from initial to 12 months [2]: no significant changes
